Laboratory results published in patent US6060516A, “N^1 -propargylhydrazines, N^2 -propargylhydrazines and their analogs for the treatment of depression, anxiety and neurodegeneration” (CV Technologies, Inc., priority 1998, dated 2000).

How the values were obtained:
[1] = system: rat brain and liver monoamine oxidase-A; assay: Monoamine oxidase-A inhibiting activity ex vivo; assay type: in vivo
Procedure: (§1) Radiolabelled 5-hydroxytryptamine was used as a substrate for monoamine oxidase-A. The compounds of interest were either injected intraperitonealy in DMSO or administered by gavage in water for various periods. The animals were killed by decapitation and the brains and livers immediately removed and frozen until assayed for monoamine oxidase-A activity. Tissues were homogenized and appropriately diluted in buffer prior to incubation. Incubations proceeded at 37° C. for 10 minutes. Incubation was terminated by the addition of acid and the radiolabelled product (5-hydroxyindoleacetaldehyde and 5-hydroxyindoleacetic acid) was extracted and quantified by liquid scintillation counting procedures. Incubations were done in triplicate and incubations containing phenelzine were included for comparison. The percent inhibition of monoamine oxidase-A activity compared to controls containing no drug was calculated.
(§2) Values are the mean ± the standard error based on (n) determinations.
(§3) Oral doses were administered as 75 μmol/kg on day 1, 75 μmol/kg on
(§4) day 2 and the animals were killed 5 hours later.

[2] = biological target: T1, rat brain monoamine oxidase-B (Rattus norvegicus, UniProt P19643); assay: Monoamine oxidase-B inhibiting activity in vitro (radiochemical, β-phenylethylamine substrate, rat brain homogenate); assay type: biochemical
T1 construct: appropriately diluted homogenates of rat brain or liver; from tissue; host or cells: rat brain or liver homogenate
T1 sequence (P19643 1-520): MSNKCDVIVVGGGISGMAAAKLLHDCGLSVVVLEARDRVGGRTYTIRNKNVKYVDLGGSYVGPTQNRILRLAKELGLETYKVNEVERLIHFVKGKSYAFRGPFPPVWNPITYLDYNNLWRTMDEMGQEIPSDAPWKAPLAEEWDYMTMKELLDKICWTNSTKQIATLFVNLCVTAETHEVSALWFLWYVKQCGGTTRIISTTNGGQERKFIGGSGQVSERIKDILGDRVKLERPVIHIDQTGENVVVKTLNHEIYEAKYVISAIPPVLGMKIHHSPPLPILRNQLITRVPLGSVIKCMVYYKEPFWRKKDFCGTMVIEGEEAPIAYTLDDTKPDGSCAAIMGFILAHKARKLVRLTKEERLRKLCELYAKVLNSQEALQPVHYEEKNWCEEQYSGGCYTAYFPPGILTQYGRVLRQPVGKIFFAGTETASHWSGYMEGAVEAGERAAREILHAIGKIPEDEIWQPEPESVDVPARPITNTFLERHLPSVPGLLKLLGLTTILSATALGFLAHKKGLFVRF
Procedure: Radiolabelled β-phenylethylamine was employed as a substrate for monoamine oxidase-B. Various concentrations of the compounds of interest were incubated in appropriately diluted homogenates of rat brain or liver in a 0.2 M potassium phosphate buffer. Incubations proceeded at 37° C. for 10 minutes. Incubation was terminated by the addition of acid and the radiolabelled product (phenylacetaldehyde and phenylacetic acid) was extracted and quantified by liquid scintillation counting procedures. Incubations were done in triplicate and incubations containing phenelzine were included for comparison. The percent inhibition of monoamine oxidase-B activity compared to controls containing no drug was calculated.

[3] = system: rat brain and liver monoamine oxidase-B; assay: Monoamine oxidase-B inhibiting activity ex vivo; assay type: in vivo
Procedure: as §1, with “β-phenylethylamine” for “5-hydroxytryptamine”, “employed” for “used”, “oxidase-B.” for “oxidase-A.”, “intraperitoneally” for “intraperitonealy”, “oxidase-B” for “oxidase-A”, “(phenylacetic” for “(5-hydroxyindoleacetaldehyde and 5-hydroxyindoleacetic”
as §2, §3, §4

[4] = system: NA, DA, 5-HT, 5-HIAA and DOPAC concentrations in rat hypothalamus; assay: Rat hypothalamus amine and amine metabolite concentrations; assay type: in vivo
Procedure: The effects of various doses of CVT-P040 on the concentrations of hypothalamus amine neurotransmitters and their metabolites were evaluated by examining concentrations of noradrenaline (NA), dopamine (DA), 5-hydroxytryptamine (5-HT), 5-hydroxyindoleacetic acid (5-HIAA) and 3,4-dihydroxyphenylacetic acid (DOPAC) in rat hypothalami 5 hours after the injection of the drug. […] The brains were removed and divided in half. One half of the brain was frozen in isopentane on dry ice and retained for estimates of amino acid neurotransmitter concentrations. The other half had the hypothalamus removed and frozen on dry ice for later estimates of amines and their metabolites according to the method of Sloley, B. D. and Goldberg J. I. (1991), Determination of γ-glutamyl conjugates of monoamines by means of high-performance liquid chromatography with electrochemical detection and application to gastropod tissues, J. Chromatog. 567: 49-56. The rest of the brain was frozen on dry ice for ex vivo examination of MAO activity as described earlier.

Structure (SMILES): C#CCN(N)CCc1ccccc1 [CVT-P040, N^1 -propargylphenelzine]
- % Inhibition Monoamine Oxidase-A ([1]; brain, 0.58 μmol/kg, 5 hr, i.p. in 10% DMSO): 7.2 ± 5.1%
- % Inhibition Monoamine Oxidase-A ([1]; brain, 5.75 μmol/kg, 5 hr, i.p. in 10% DMSO): 9.1 ± 4.9%
- % Inhibition Monoamine Oxidase-A ([1]; brain, 57.5 μmol/kg, 5 hr, i.p. in 10% DMSO): 86.6 ± 6.7%
- % Inhibition Monoamine Oxidase-A ([1]; brain, 150 μmol/kg, 5 hr, i.p. in 10% DMSO): 96.7 ± 0.6%
- % Inhibition Monoamine Oxidase-A ([1]; brain, 173 μmol/kg, 5 hr, i.p. in 10% DMSO): 98.4 ± 0.1%
- % Inhibition Monoamine Oxidase-A ([1]; brain, 2 × 75 μmol/kg per os (day 1 and day 2, killed 5 hours later)): 96.9 ± 0.8%
- % Inhibition Monoamine Oxidase-A ([1]; liver, 0.58 μmol/kg, 5 hr, i.p. in 10% DMSO): -6.1 ± 4.4%
- % Inhibition Monoamine Oxidase-A ([1]; liver, 5.75 μmol/kg, 5 hr, i.p. in 10% DMSO): 43.7 ± 5.4%
- % Inhibition Monoamine Oxidase-A ([1]; liver, 57.5 μmol/kg, 5 hr, i.p. in 10% DMSO): 91.7 ± 2.3%
- % Inhibition Monoamine Oxidase-A ([1]; liver, 173 μmol/kg, 5 hr, i.p. in 10% DMSO): 97.7 ± 0.3%
- % Inhibition Monoamine Oxidase-A ([1]; liver, 2 × 75 μmol/kg per os (day 1 and day 2, killed 5 hours later)): 95.4 ± 0.7%
- inhibition at 100 µM ([2]; 1 × 10^-4 M): 99.7%
- inhibition at 10 µM ([2]; 1 × 10^-5 M): 97.9%
- inhibition at 1 µM ([2]; 1 × 10^-6 M): 88.8%
- inhibition at 0.1 µM ([2]; 1 × 10^-7 M): 59.8%
- inhibition at 0.01 µM ([2]; 1 × 10^-8 M): 19.9%
- % Inhibition of Monoamine Oxidase-B ([3]; brain, 0.58 μmol/kg, 5 hr, i.p. in 10% DMSO (Table 4, MAO-B by title)): -4.7 ± 2.0%
- % Inhibition of Monoamine Oxidase-B ([3]; brain, 5.75 μmol/kg, 5 hr, i.p. in 10% DMSO (Table 4, MAO-B by title)): 11.8 ± 5.1%
- % Inhibition of Monoamine Oxidase-B ([3]; brain, 57.5 μmol/kg, 5 hr, i.p. in 10% DMSO (Table 4, MAO-B by title)): 66.1 ± 6.9%
- % Inhibition of Monoamine Oxidase-B ([3]; brain, 150 μmol/kg, 5 hr, i.p. in 10% DMSO (Table 4, MAO-B by title)): 85.5 ± 1.7%
- % Inhibition of Monoamine Oxidase-B ([3]; brain, 173 μmol/kg, 5 hr, i.p. in 10% DMSO (Table 4, MAO-B by title)): 93.2 ± 0.8%
- % Inhibition of Monoamine Oxidase-B ([3]; brain, 2 × 75 μmol/kg per os (Table 4, MAO-B by title)): 85.4 ± 2.1%
- % Inhibition of Monoamine Oxidase-B ([3]; liver, 0.58 μmol/kg, 5 hr, i.p. in 10% DMSO (Table 4, MAO-B by title)): 1.1 ± 5.4%
- % Inhibition of Monoamine Oxidase-B ([3]; liver, 5.75 μmol/kg, 5 hr, i.p. in 10% DMSO (Table 4, MAO-B by title)): 29.3 ± 2.8%
- % Inhibition of Monoamine Oxidase-B ([3]; liver, 57.5 μmol/kg, 5 hr, i.p. in 10% DMSO (Table 4, MAO-B by title)): 64.0 ± 5.5%
- % Inhibition of Monoamine Oxidase-B ([3]; liver, 173 μmol/kg, 5 hr, i.p. in 10% DMSO (Table 4, MAO-B by title)): 87.9 ± 1.0%
- % Inhibition of Monoamine Oxidase-B ([3]; liver, 2 × 75 μmol/kg per os (Table 4, MAO-B by title)): 82.3 ± 2.3%
- 5-HIAA ([4]; 0.58 μmol/kg, 5 hr, ip): 350 ± 28 ng/g
- 5-HT ([4]; 0.58 μmol/kg, 5 hr, ip): 652 ± 69 ng/g
- DA ([4]; 0.58 μmol/kg, 5 hr, ip): 716 ± 82 ng/g
- DOPAC ([4]; 0.58 μmol/kg, 5 hr, ip): 77 ± 9 ng/g
- NA ([4]; 0.58 μmol/kg, 5 hr, ip): 1155 ± 81 ng/g
- 5-HIAA ([4]; 5.75 μmol/kg, 5 hr, ip): 327 ± 26 ng/g
- 5-HT ([4]; 5.75 μmol/kg, 5 hr, ip): 634 ± 58 ng/g
- DA ([4]; 5.75 μmol/kg, 5 hr, ip): 717 ± 85 ng/g
- DOPAC ([4]; 5.75 μmol/kg, 5 hr, ip): 80 ng/g
- NA ([4]; 5.75 μmol/kg, 5 hr, ip): 1332 ± 98 ng/g
- 5-HIAA ([4]; 57.5 μmol/kg, 5 hr, ip): 294 ± 22 ng/g
- 5-HT ([4]; 57.5 μmol/kg, 5 hr, ip): 1324 ng/g
- DA ([4]; 57.5 μmol/kg, 5 hr, ip): 753 ± 99 ng/g
- DOPAC ([4]; 57.5 μmol/kg, 5 hr, ip): 49 ng/g
- NA ([4]; 57.5 μmol/kg, 5 hr, ip): 1672 ± 82 ng/g
- 5-HIAA ([4]; 150 μmol/kg, 5 hr, ip): 131 ± 8 ng/g
- 5-HT ([4]; 150 μmol/kg, 5 hr, ip): 1497 ng/g
- DA ([4]; 150 μmol/kg, 5 hr, ip): 522 ± 28 ng/g
- DOPAC ([4]; 150 μmol/kg, 5 hr, ip): 45 ± 4 ng/g
- NA ([4]; 150 μmol/kg, 5 hr, ip): 2050 ± 202 ng/g
- 5-HIAA ([4]; 173 μmol/kg, 5 hr, ip): 148 ± 10 ng/g
- 5-HT ([4]; 173 μmol/kg, 5 hr, ip): 1509 ng/g
- DA ([4]; 173 μmol/kg, 5 hr, ip): 865 ± 19 ng/g
- DOPAC ([4]; 173 μmol/kg, 5 hr, ip): 30 ng/g
- NA ([4]; 173 μmol/kg, 5 hr, ip): 1867 ± 253 ng/g
- 5-HIAA ([4]; 2 × 75 μmol/kg per os): 197 ng/g
- 5-HT ([4]; 2 × 75 μmol/kg per os): 1215 ± 36 ng/g
- DA ([4]; 2 × 75 μmol/kg per os): 487 ± 47 ng/g
- DOPAC ([4]; 2 × 75 μmol/kg per os): 50 ± 3 ng/g
- NA ([4]; 2 × 75 μmol/kg per os): 2230 ± 101 ng/g
- 5-HIAA concentrations ([4]; dose dependent, in words): significantly reduced 5-HIAA and DOPAC concentrations
- 5-HT concentrations ([4]; dose dependent, in words): significantly elevated 5-HT and NA concentrations
- DOPAC concentrations ([4]; dose dependent, in words): significantly reduced 5-HIAA and DOPAC concentrations
- NA concentrations ([4]; dose dependent, in words): significantly elevated 5-HT and NA concentrations
- reduction in 5-hydroxyindoleacetic acid concentrations compared with phenelzine ([4]; equivalent doses, in words): comparable to that determined with equivalent doses of phenelzine
